Assay results from ChEMBL document CHEMBL5442741, “ASAP - In vitro kinase profile” (2024).

Columns and labels:
[1] = target: Tyrosine-protein kinase ABL1 (Homo sapiens) (UniProt P00519); test: Enzymatic radiometric [Km ATP] KinaseProfiler LeadHunter assay, kinase: Abl, catalogue number: 14-529KP The assay has been performed by Eurofins Discovery.; settings: ATP concentration 45.0 uM, Test compound concentration 10.0 uM
[2] = target: ALK tyrosine kinase receptor (Homo sapiens) (UniProt Q9UM73); test: Enzymatic radiometric [Km ATP] KinaseProfiler LeadHunter assay, kinase: ALK, catalogue number: 14-555KP The assay has been performed by Eurofins Discovery.; settings: ATP concentration 200.0 uM, Test compound concentration 10.0 uM
ALK tyrosine kinase receptor (Homo sapiens), sequence (Q9UM73 19-1620 limits assumed): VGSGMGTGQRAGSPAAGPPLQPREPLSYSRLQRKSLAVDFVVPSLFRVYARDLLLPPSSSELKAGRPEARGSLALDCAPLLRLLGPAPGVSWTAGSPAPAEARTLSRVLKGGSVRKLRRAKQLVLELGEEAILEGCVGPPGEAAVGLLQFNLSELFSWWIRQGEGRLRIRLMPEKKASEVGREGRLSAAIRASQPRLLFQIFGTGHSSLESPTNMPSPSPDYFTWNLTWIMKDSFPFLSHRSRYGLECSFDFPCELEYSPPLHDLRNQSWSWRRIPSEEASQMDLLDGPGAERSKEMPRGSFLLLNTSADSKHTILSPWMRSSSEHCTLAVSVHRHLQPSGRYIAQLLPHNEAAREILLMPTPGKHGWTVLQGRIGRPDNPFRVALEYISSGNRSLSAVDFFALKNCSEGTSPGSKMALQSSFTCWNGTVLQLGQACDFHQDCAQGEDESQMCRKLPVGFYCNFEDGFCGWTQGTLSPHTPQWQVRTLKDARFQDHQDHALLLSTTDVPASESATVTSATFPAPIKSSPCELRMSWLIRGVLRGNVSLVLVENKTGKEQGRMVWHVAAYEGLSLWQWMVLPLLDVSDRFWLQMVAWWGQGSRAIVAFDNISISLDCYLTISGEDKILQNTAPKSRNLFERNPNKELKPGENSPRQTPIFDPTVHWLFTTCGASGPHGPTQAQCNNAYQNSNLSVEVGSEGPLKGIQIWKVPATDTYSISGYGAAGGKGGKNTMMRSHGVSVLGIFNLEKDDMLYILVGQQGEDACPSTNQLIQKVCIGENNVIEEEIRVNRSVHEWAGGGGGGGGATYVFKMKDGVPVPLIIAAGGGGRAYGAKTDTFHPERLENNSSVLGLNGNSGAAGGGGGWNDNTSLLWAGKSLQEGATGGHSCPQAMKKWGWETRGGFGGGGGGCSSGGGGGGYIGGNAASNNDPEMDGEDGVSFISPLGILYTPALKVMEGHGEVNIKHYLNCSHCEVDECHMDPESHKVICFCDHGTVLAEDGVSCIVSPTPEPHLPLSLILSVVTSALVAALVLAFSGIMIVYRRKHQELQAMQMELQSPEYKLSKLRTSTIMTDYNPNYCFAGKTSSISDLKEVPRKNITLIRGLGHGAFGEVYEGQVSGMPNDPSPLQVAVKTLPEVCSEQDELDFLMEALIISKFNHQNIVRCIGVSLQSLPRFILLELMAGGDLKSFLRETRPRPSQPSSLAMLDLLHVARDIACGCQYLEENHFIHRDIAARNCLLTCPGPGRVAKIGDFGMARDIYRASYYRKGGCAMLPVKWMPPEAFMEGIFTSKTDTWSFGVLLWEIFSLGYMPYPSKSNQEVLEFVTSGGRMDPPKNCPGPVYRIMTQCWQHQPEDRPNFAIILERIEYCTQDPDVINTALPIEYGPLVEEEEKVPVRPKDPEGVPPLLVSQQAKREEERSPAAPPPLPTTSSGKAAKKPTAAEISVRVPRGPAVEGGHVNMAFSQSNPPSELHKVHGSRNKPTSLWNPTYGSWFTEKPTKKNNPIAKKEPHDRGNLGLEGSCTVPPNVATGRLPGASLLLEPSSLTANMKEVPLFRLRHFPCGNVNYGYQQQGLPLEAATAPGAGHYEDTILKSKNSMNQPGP

[3] = target: CDK7/Cyclin H/MNAT1 (Homo sapiens) (UniProt P51946+P50613+P51948); test: Enzymatic radiometric [Km ATP] KinaseProfiler LeadHunter assay, kinase: CDK7/cyclinH/MAT1, catalogue number: 14-476KP The assay has been performed by Eurofins Discovery.; assay type: protein-complex assay; settings: ATP concentration 90.0 uM, Test compound concentration 10.0 uM
[4] = target: T1, Eukaryotic elongation factor 2 kinase (Homo sapiens) (UniProt O00418); test: Enzymatic radiometric [Km ATP] KinaseProfiler LeadHunter assay, kinase: eEF-2K, catalogue number: 14-654KP The assay has been performed by Eurofins Discovery.; settings: ATP concentration 15.0 uM, Test compound concentration 10.0 uM
T1 sequence (whole entry): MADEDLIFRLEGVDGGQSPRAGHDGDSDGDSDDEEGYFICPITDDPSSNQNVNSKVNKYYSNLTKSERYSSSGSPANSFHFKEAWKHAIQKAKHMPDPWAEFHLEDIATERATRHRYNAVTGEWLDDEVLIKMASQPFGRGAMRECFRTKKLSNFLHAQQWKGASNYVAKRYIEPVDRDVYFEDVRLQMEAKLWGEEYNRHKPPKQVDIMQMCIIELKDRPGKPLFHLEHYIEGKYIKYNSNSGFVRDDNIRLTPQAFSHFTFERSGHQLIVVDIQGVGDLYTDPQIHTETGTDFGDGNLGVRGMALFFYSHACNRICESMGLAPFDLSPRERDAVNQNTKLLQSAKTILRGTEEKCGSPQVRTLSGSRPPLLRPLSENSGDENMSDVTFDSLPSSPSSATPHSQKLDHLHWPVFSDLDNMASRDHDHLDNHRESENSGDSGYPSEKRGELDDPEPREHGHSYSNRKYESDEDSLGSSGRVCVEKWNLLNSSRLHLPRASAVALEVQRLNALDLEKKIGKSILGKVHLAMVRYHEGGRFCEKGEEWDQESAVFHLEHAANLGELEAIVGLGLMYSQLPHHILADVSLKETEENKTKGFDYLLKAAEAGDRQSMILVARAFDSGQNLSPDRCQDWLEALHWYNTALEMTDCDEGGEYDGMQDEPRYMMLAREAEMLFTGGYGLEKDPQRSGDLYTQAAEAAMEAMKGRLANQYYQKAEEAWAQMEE

[5] = target: Ephrin type-A receptor 5 (Homo sapiens) (UniProt P54756); test: Enzymatic radiometric [Km ATP] KinaseProfiler LeadHunter assay, kinase: EphA5, catalogue number: 14-639KP The assay has been performed by Eurofins Discovery.; settings: ATP concentration 10.0 uM, Test compound concentration 10.0 uM
[6] = target: Tyrosine-protein kinase Fyn (Homo sapiens) (UniProt P06241); test: Enzymatic radiometric [Km ATP] KinaseProfiler LeadHunter assay, kinase: Fyn, catalogue number: 14-441KP The assay has been performed by Eurofins Discovery.; settings: ATP concentration 70.0 uM, Test compound concentration 10.0 uM
[7] = target: T2, Interleukin-1 receptor-associated kinase 4 (Homo sapiens) (UniProt Q9NWZ3); test: Enzymatic radiometric [Km ATP] KinaseProfiler LeadHunter assay, kinase: IRAK4, catalogue number: 14-599KP The assay has been performed by Eurofins Discovery.; settings: ATP concentration 200.0 uM, Test compound concentration 10.0 uM
T2 sequence (whole entry): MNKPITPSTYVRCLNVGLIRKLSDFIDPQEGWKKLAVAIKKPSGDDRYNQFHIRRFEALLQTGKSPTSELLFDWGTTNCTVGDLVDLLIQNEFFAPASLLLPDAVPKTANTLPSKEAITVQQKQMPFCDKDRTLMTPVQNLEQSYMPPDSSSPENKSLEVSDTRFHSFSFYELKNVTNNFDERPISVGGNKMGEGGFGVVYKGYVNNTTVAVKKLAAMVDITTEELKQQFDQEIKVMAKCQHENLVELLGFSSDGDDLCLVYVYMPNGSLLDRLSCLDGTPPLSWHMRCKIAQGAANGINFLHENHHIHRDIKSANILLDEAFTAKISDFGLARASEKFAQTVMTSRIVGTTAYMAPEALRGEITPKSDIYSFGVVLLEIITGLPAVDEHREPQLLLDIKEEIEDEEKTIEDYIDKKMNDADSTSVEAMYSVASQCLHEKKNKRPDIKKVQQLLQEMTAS

[8] = target: MAP kinase-activated protein kinase 2 (Homo sapiens) (UniProt P49137); test: Enzymatic radiometric [Km ATP] KinaseProfiler LeadHunter assay, kinase: MAPKAP-K2, catalogue number: 14-337KP The assay has been performed by Eurofins Discovery.; settings: ATP concentration 90.0 uM, Test compound concentration 10.0 uM
[9] = target: MAP kinase-interacting serine/threonine-protein kinase 2 (Homo sapiens) (UniProt Q9HBH9); test: Enzymatic radiometric [Km ATP] KinaseProfiler LeadHunter assay, kinase: Mnk2, catalogue number: 14-664KP The assay has been performed by Eurofins Discovery.; settings: ATP concentration 120.0 uM, Test compound concentration 10.0 uM
[10] = target: Ribosomal protein S6 kinase beta-1 (Homo sapiens) (UniProt P23443); test: Enzymatic radiometric [Km ATP] KinaseProfiler LeadHunter assay, kinase: p70S6K, catalogue number: 14-486KP The assay has been performed by Eurofins Discovery.; settings: ATP concentration 15.0 uM, Test compound concentration 10.0 uM
Ribosomal protein S6 kinase beta-1 (Homo sapiens), sequence (P23443 whole entry, looked up): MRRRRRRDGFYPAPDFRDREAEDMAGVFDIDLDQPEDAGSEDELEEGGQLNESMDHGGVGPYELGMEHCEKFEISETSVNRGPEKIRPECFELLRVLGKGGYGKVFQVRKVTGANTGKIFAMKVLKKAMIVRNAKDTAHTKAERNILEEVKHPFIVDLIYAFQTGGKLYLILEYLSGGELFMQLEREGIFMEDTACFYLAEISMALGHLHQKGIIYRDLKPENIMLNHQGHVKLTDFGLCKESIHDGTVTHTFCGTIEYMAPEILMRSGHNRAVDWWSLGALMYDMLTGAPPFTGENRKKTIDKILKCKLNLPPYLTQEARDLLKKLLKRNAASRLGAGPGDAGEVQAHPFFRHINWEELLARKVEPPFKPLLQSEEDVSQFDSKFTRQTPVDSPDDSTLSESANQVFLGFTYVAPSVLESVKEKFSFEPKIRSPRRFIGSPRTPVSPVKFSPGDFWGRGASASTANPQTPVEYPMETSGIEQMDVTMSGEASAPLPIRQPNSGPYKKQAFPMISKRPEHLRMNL

[11] = target: Serine/threonine-protein kinase PAK 2 (Homo sapiens) (UniProt Q13177); test: Enzymatic radiometric [Km ATP] KinaseProfiler LeadHunter assay, kinase: PAK2, catalogue number: 14-481KP The assay has been performed by Eurofins Discovery.; settings: ATP concentration 90.0 uM, Test compound concentration 10.0 uM
Serine/threonine-protein kinase PAK 2 (Homo sapiens), sequence (Q13177 whole entry): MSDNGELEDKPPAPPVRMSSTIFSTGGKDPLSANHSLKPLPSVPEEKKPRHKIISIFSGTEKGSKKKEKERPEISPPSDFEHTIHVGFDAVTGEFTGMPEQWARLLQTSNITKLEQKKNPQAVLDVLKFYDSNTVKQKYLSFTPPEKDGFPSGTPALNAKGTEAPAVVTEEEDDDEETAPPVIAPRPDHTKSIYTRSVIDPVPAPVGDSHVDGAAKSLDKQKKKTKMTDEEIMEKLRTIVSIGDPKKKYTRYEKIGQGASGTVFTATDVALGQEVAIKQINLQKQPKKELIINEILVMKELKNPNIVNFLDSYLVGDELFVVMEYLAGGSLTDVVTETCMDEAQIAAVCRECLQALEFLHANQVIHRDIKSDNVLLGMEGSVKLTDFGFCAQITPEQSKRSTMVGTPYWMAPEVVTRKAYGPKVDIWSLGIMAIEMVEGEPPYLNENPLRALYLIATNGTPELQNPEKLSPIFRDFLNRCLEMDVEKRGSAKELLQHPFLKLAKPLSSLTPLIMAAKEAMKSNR

[12] = target: cAMP-dependent protein kinase catalytic subunit alpha (Homo sapiens) (UniProt P17612); test: Enzymatic radiometric [Km ATP] KinaseProfiler LeadHunter assay, kinase: PKA, catalogue number: 14-440KP The assay has been performed by Eurofins Discovery.; settings: ATP concentration 10.0 uM, Test compound concentration 10.0 uM
[13] = target: Serine/threonine-protein kinase PLK3 (Homo sapiens) (UniProt Q9H4B4); test: Enzymatic radiometric [Km ATP] KinaseProfiler LeadHunter assay, kinase: Plk3, catalogue number: 14-572KP The assay has been performed by Eurofins Discovery.; settings: ATP concentration 70.0 uM, Test compound concentration 10.0 uM
Serine/threonine-protein kinase PLK3 (Homo sapiens), sequence (Q9H4B4 whole entry, looked up): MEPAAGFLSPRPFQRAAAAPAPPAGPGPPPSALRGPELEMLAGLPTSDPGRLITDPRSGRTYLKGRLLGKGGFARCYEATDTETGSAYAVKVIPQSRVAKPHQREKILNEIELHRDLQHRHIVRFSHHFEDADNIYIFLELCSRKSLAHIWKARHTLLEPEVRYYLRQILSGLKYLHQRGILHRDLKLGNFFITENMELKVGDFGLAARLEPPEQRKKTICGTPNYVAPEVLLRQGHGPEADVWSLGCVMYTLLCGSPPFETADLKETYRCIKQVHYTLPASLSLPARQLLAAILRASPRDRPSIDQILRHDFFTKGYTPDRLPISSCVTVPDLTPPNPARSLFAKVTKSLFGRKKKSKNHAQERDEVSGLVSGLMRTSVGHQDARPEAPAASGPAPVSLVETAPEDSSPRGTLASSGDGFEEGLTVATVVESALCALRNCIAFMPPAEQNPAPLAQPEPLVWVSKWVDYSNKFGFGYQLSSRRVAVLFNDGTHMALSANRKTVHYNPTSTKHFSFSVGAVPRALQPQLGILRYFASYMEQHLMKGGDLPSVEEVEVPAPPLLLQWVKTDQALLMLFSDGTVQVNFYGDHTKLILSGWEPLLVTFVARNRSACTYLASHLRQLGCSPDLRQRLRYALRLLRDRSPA

[14] = target: PI3K p110 beta/p85 alpha (Homo sapiens) (UniProt P27986+P42338); test: Enzymatic radiometric [Km ATP] KinaseProfiler LeadHunter assay, kinase: PI3 Kinase (p110-beta/p85-alpha), catalogue number: 14-603KP The assay has been performed by Eurofins Discovery.; assay type: protein-complex assay; settings: ATP concentration 200.0 uM, Test compound concentration 10.0 uM
PI3K p110 beta/p85 alpha (Homo sapiens), sequence (P27986 2-724 limits assumed): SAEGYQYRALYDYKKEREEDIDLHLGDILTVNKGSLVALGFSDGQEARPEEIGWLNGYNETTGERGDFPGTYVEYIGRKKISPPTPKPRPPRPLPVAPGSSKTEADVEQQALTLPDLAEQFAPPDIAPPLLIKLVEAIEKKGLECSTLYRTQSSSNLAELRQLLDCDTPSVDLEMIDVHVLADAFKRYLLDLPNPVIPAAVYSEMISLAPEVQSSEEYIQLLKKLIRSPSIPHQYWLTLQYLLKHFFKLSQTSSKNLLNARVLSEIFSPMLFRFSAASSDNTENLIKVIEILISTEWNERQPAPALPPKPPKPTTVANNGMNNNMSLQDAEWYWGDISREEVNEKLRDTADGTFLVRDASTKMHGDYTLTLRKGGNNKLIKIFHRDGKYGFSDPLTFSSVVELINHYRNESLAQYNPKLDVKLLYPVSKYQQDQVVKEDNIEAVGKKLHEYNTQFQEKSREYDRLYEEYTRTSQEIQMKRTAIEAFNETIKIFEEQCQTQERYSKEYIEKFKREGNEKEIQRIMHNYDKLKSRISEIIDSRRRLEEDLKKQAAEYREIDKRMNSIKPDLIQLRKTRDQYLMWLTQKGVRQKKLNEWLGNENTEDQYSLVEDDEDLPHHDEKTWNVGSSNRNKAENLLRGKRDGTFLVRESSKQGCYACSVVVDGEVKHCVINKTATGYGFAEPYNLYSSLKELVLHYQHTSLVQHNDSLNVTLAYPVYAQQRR
PI3K p110 beta/p85 alpha (Homo sapiens), sequence (P42338 whole entry partner): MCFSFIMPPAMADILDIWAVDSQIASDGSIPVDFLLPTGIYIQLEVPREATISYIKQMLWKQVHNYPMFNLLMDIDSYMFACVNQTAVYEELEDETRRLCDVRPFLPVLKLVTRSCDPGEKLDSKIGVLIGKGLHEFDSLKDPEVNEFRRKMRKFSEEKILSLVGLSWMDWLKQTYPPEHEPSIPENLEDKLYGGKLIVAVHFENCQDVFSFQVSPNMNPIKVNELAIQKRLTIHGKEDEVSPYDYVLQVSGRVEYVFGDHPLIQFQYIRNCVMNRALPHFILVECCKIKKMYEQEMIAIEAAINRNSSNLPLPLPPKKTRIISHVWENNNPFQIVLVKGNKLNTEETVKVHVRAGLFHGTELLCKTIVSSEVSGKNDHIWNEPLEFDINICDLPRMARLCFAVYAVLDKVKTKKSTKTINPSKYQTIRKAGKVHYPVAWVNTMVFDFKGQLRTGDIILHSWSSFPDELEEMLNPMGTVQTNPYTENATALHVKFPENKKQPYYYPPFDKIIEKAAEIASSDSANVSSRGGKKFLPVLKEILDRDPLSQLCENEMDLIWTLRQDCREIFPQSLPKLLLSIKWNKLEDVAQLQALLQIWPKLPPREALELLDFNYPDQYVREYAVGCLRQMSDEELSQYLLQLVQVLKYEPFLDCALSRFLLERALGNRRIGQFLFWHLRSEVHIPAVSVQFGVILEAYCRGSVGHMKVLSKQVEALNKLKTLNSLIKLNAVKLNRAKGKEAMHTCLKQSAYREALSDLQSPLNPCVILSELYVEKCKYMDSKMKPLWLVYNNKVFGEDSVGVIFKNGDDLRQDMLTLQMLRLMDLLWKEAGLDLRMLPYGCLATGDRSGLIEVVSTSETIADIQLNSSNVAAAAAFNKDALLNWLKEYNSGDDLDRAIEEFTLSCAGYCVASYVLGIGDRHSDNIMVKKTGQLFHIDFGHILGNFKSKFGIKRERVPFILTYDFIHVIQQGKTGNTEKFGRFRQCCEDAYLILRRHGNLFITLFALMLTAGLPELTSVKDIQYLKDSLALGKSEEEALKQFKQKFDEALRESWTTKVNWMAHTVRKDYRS

[15] = target: PI3-kinase p110-delta/p85-alpha (Homo sapiens) (UniProt P27986+O00329); test: Enzymatic radiometric [Km ATP] KinaseProfiler LeadHunter assay, kinase: PI3 Kinase (p110-delta/p85-alpha), catalogue number: 14-604KP The assay has been performed by Eurofins Discovery.; assay type: protein-complex assay; settings: ATP concentration 200.0 uM, Test compound concentration 10.0 uM

Row | SMILES | Activity [1] [%] | Activity [2] [%] | Activity [3] [%] | Activity [4] [%] | Activity [5] [%] | Activity [6] [%] | Activity [7] [%] | Activity [8] [%] | Activity [9] [%] | Activity [10] [%] | Activity [11] [%] | Activity [12] [%] | Activity [13] [%] | Activity [14] [%] | Activity [15] [%]
1 | C[C@H](C(=O)O)[C@@H](NC(=O)c1ncnc2[nH]ccc12)c1ccc(Br)cc1 | 97 | 99 | 99 | 85 | 99 | 98 | 106 | 98 | 110 | 97 | 95 | 87 | 98 | 97 | 97
2 | Cn1ncc(-c2cc3c(N[C@@H](c4ccc5c(n4)OCCO5)C(C)(C)C)ncnc3[nH]2)c1C#N | 81 | 117 | 108 | 124 | 102 | 82 | 132 | 110 | 100 | 108 | 111 | 95 | 77 | 91 | 73
3 | COc1ccc([C@@H](Cc2nnn[nH]2)NC(=O)c2ncnc3[nH]ccc23)cc1 | 98 | 95 | 91 | 96 | 106 | 105 | 91 | 92 | 84 | 81 | 102 | 105 | 102 | 102 | 99
4 | COc1ccc([C@H](Cc2nnn[nH]2)NC(=O)c2ncnc3[nH]ccc23)cc1 | 102 | 106 | 107 | 96 | 102 | 102 | 109 | 102 | 115 | 113 | 107 | 88 | 102 | 97 | 97
5 | CC(C)[C@H](Nc1ncnc2[nH]c(-c3cnn(C)c3C#N)cc12)c1ccc2c(n1)OCCO2 | 57 | 116 | 98 | 108 | 102 | 80 | 106 | 115 | 95 | 125 | 99 | 82 | 102 | 86 | 66

Second part, the compound after the results:

Row | Activity [1] [%] | Activity [2] [%] | Activity [3] [%] | Activity [4] [%] | Activity [5] [%] | Activity [6] [%] | Activity [7] [%] | Activity [8] [%] | Activity [9] [%] | Activity [10] [%] | Activity [11] [%] | Activity [12] [%] | Activity [13] [%] | Activity [14] [%] | Activity [15] [%] | SMILES
6 | 93 | 93 | 85 | 92 | 110 | 127 | 88 | 105 | 89 | 98 | 110 | 98 | 103 | 101 | 101 | CC(C)[C@@H](Nc1ncnc2[nH]ccc12)c1ccc2c(c1)S(=O)(=O)CCC2
7 | 100 | 106 | 101 | 89 | 100 | 107 | 105 | 108 | 99 | 104 | 99 | 89 | 98 | 99 | 99 | CC(C)[C@@H](Nc1ncnc2[nH]c(C(=O)N[C@@H]3CCN(C)C3)cc12)c1ccc2c(c1)S(=O)(=O)CCC2
8 | 76 | 99 | 93 | 98 | 74 | 32 | 107 | 110 | 99 | 108 | 100 | 95 | 104 | 105 | 101 | Cc1nn(C)cc1-c1cc2c(N[C@H](c3ccc4c(c3)S(=O)(=O)CCC4)C(C)C)ncnc2[nH]1
9 | 51 | 99 | 100 | 82 | 78 | 64 | 100 | 106 | 94 | 110 | 94 | 96 | 124 | 92 | 80 | CNCc1cc(-c2cc3c(N[C@@H](c4ccc5c(c4)S(=O)(=O)CCC5)C(C)C)ncnc3[nH]2)co1
10 | 72 | 95 | 95 | 94 | 80 | 65 | 101 | 111 | 94 | 100 | 103 | 99 | 98 | 100 | 87 | CNC(=O)Cn1cc(-c2cc3c(N[C@@H](c4ccc5c(c4)S(=O)(=O)CCC5)C(C)C)ncnc3[nH]2)cn1
11 | 105 | 100 | 89 | 93 | 102 | 96 | 112 | 106 | 98 | 103 | 102 | 89 | 112 | 100 | 99 | CC(C)[C@H](Nc1ncnc2[nH]ccc12)c1ccc2c(c1)S(=O)(=O)CCC2
